Measured values from US10233179B2, “Thiazoles and uses thereof” (AbbVie Inc., priority 2013, dated 2019).

How the values were obtained:
[1] = tested on: RSV (Group A, Long Strain); assay: Antiviral cytopathic effect (CPE) protection assay, MTT readout; assay type: cell-based; settings: human respiratory syncytial virus, 96 h; HEp-2 cells, 0.2 MOI RSV, 4 days incubation, protection from CPE by MTT
Description: HEp-2 cells and RSV (Group A, Long Strain) were obtained from the American Type Culture Collection (Manassas, Va.).
A cytopathic effect (CPE) protection assay was performed to determine the ability of a compound to protect the cells from viral infection and thus the CPE induced by viral infection. 96-Well plates were first seeded with 3×10^3 HEp-2 cells per well in Dulbecco's modified Eagle's medium (DMEM) containing 10% fetal bovine serum (FBS). One day after the cells were seeded, they were preincubated with serial dilutions of compounds prepared in 100 μL assay medium (DMEM mixed with F12 medium at a 1:1 ratio, supplemented with 2% FBS and 1 mM sodium pyruvate) for 1 hour at 37° C. 100 μL of assay medium containing 0.2 multiplicity of infection (MOI) of RSV was then added to each well of cells. In addition to wells containing infected cells incubated with compounds, each plate also contained replicates of two kinds of controls: (1) Virus control contained cells infected with 0.2 MOI of RSV in assay medium, (2) Uninfected cell control contained cells incubated with assay medium only. After 4 days of incubation at 37° C., the viability of cells was assessed using MTT (Thiazolyl blue tetrazolium bromide, Sigma). A stock solution of MTT, at a concentration of 4 mg/mL in phosphate-buffered saline, was added to all wells at 25 μL per well. Plates were further incubated for 4 hours, and each well was then treated with 50 μL of a solution containing 20% sodium dodecyl sulfate (SDS) and 0.02 N HCl. After an overnight incubation, the plates were measured on a BioTek® microtiter plate reader at wavelengths of 570 nm and 650 nm. The MTT detection is based on the fact that viable (uninfected) cells can reduce the tetrazolium salts into colored formazan products, which can then be quantitated by spectrometry. Based on the spectrometric absorbance of each sample, the percent of protection from CPE, which is an indicator of protection from viral infection, can be calculated for each compound and the 50% effective concentrations (EC50) can be calculated using a nonlinear regression curve fitting equation provided by the GraphPad Prism® 4 software.
Compounds were tested to determine both their antiviral and toxicity to determine their therapeutic window. Determination of the EC50 and TD50 of these active compounds were repeated one additional time to confirm the window.

[2] = tested on: HEp-2 cells; assay: Cytotoxicity assay (MTT) in parallel with the antiviral assay; assay type: cell-based
Description: HEp-2 cells and RSV (Group A, Long Strain) were obtained from the American Type Culture Collection (Manassas, Va.). Cytotoxicity of the compounds was determined in experiments done in parallel with the antiviral assays. To do this, 100 μL of assay medium was added to the wells of HEp-2 cells pretreated with 100 μL serially diluted compounds as described above. After 4 days of incubation, the viability of the cells was determined by the MTT assay in the same way as detailed in the “Antiviral Assay” method. Results were expressed as 50% toxicity dose (TD50) values. Compounds were tested to determine both their antiviral and toxicity to determine their therapeutic window. Determination of the EC50 and TD50 of these active compounds were repeated one additional time to confirm the window.

[3] = uninfected HEp-2 cells, 4 days incubation, MTT viability

| SMILES | EC50 [1] [nM] | MTT TD50 [2, 3] [µM] | MTT TD50 ([2]; human, 4 days) [µM] |
| --- | --- | --- | --- |
| COc1ccc(CN(Cc2cccn2-c2nncs2)Cc2cccn2-c2nncs2)c(OC)c1 [Example 8, 1-(2,4-dimethoxyphenyl)-N,N-bis{[1-(1,3,4-thiadiazol-2-yl)-1H-pyrrol-2-yl]methyl}methanamine] | 240 | 22 | – |
| Cn1nccc1N(Cc1cccn1-c1nncs1)Cc1cccn1-c1nncs1 [Example 9, 1-methyl-N,N-bis{[1-(1,3,4-thiadiazol-2-yl)-1H-pyrrol-2-yl]methyl}-1H-pyrazol-5-amine] | 4900 | >32 | – |
| c1ccc(CN(Cc2cccn2-c2nncs2)Cc2cccn2-c2nncs2)cc1 [Example 10, 1-phenyl-N,N-bis{[1-(1,3,4-thiadiazol-2-yl)-1H-pyrrol-2-yl]methyl}methanamine] | 520 | 97 | – |
| c1cc(CN(Cc2cccn2-c2nncs2)CC2C[C@H]3CC[C@@H]2C3)n(-c2nncs2)c1 (stereo partly drawn) [Example 11, 1-[(1R,4S)-bicyclo[2.2.1]hept-2-yl]-N,N-bis{[1-(1,3,4-thiadiazol-2-yl)-1H-pyrrol-2-yl]methyl}methanamine] | 560 | 26 | – |
| Cc1ccccc1CN(Cc1cccn1-c1nncs1)Cc1cccn1-c1nncs1 [Example 12, 1-(2-methylphenyl)-N,N-bis{[1-(1,3,4-thiadiazol-2-yl)-1H-pyrrol-2-yl]methyl}methanamine] | 64 | >10 | – |
| Clc1cnc(CN(Cc2cccn2-c2nncs2)Cc2cccn2-c2nncs2)c(Cl)c1 [Example 14, 1-(3,5-dichloropyridin-2-yl)-N,N-bis{[1-(1,3,4-thiadiazol-2-yl)-1H-pyrrol-2-yl]methyl}methanamine] | 4800 | 90 | – |
| Fc1ccccc1CN(Cc1cccn1-c1nncs1)Cc1cccn1-c1nncs1 [Example 15, 1-(2-fluorophenyl)-N,N-bis{[1-(1,3,4-thiadiazol-2-yl)-1H-pyrrol-2-yl]methyl}methanamine] | 120 | 67 | – |
| FC(F)(F)c1cccc(CN(Cc2cccn2-c2nncs2)Cc2cccn2-c2nncs2)c1 [Example 16, 1-[1-(1,3,4-thiadiazol-2-yl)-1H-pyrrol-2-yl]-N-{[1-(1,3,4-thiadiazol-2-yl)-1H-pyrrol-2-yl]methyl}-N-[3-(trifluoromethyl)benzyl]methanamine] | 2100 | 30 | – |
| CC(c1ccc(Cl)c(Cl)c1)N(Cc1cccn1-c1nncs1)Cc1cccn1-c1nncs1 (stereo not shown) [Example 17, 1-(3,4-dichlorophenyl)-N,N-bis{[1-(1,3,4-thiadiazol-2-yl)-1H-pyrrol-2-yl]methyl}ethanamine] | 15000 | >32 | – |
| Clc1ccccc1CN(Cc1cccn1-c1nncs1)Cc1cccn1-c1nncs1 [Example 18, 1-(2-chlorophenyl)-N,N-bis{[1-(1,3,4-thiadiazol-2-yl)-1H-pyrrol-2-yl]methyl}methanamine] | 62 | >32 | – |
| c1ccc(C2(CCN(Cc3cccn3-c3nncs3)Cc3cccn3-c3nncs3)CC2)nc1 [Example 21, 2-[1-(pyridin-2-yl)cyclopropyl]-N,N-bis{[1-(1,3,4-thiadiazol-2-yl)-1H-pyrrol-2-yl]methyl}ethanamine] | 62 | >32 | – |
| c1ccc(N(Cc2cccn2-c2nncs2)Cc2cccn2-c2nncs2)cc1 [Example 22, N,N-bis{[1-(1,3,4-thiadiazol-2-yl)-1H-pyrrol-2-yl]methyl}aniline] | 28000 | >32 | – |
| FC1(F)CCC(CN(Cc2cccn2-c2nncs2)Cc2cccn2-c2nncs2)CC1 [Example 23, 1-(4,4-difluorocyclohexyl)-N,N-bis{[1-(1,3,4-thiadiazol-2-yl)-1H-pyrrol-2-yl]methyl}methanamine] | 2400 | >100 | – |
| c1cncc(C2(CCN(Cc3cccn3-c3nncs3)Cc3cccn3-c3nncs3)CC2)c1 [Example 24, 2-[1-(pyridin-3-yl)cyclopropyl]-N,N-bis{[1-(1,3,4-thiadiazol-2-yl)-1H-pyrrol-2-yl]methyl}ethanamine] | 2900 | >100 | – |
| CC(Cc1cccs1)N(Cc1cccn1-c1nncs1)Cc1cccn1-c1nncs1 (stereo not shown) [Example 25, N,N-bis{[1-(1,3,4-thiadiazol-2-yl)-1H-pyrrol-2-yl]methyl}-1-(thiophen-2-yl)propan-2-amine] | 7500 | – | 55 |
| c1cncc(C2(CN(Cc3cccn3-c3nncs3)Cc3cccn3-c3nncs3)CC2)c1 [Example 26, 1-[1-(pyridin-3-yl)cyclopropyl]-N,N-bis{[1-(1,3,4-thiadiazol-2-yl)-1H-pyrrol-2-yl]methyl}methanamine] | 1100 | >100 | – |

The next lines start with results.

| EC50 [1] [nM] | SMILES | MTT TD50 [2, 3] [µM] | MTT TD50 ([2]; human, 4 days) [µM] |
| --- | --- | --- | --- |
| 120 | Cc1c(C(C)N(Cc2cccn2-c2nccs2)Cc2cccn2-c2nccs2)cnn1-c1cccc(F)c1 (racemic) [Example 1, 1-[1-(3-fluorophenyl)-5-methyl-1H-pyrazol-4-yl]-N,N-bis{[1-(1,3-thiazol-2-yl)-1H-pyrrol-2-yl]methyl}ethanamine] | 11 | – |
| 71 | Cc1c([C@H](C)N(Cc2cccn2-c2nccs2)Cc2cccn2-c2nccs2)cnn1-c1cccc(F)c1 [Example 2, (1S)-1-[1-(3-fluorophenyl)-5-methyl-1H-pyrazol-4-yl]-N,N-bis{[1-(1,3-thiazol-2-yl)-1H-pyrrol-2-yl]methyl}ethanamine] | >32 | – |
| 960 | Cc1c([C@@H](C)N(Cc2cccn2-c2nccs2)Cc2cccn2-c2nccs2)cnn1-c1cccc(F)c1 [Example 3, (1R)-1-[1-(3-fluorophenyl)-5-methyl-1H-pyrazol-4-yl]-N,N-bis{[1-(1,3-thiazol-2-yl)-1H-pyrrol-2-yl]methyl}ethanamine] | >32 | – |
| > 480 | COc1ccccc1CN(Cc1cccn1-c1nccs1)C(C)c1cnn(-c2cccc(F)c2)c1C (stereo not shown) [Example 4, 1-[1-(3-fluorophenyl)-5-methyl-1H-pyrazol-4-yl]-N-(2-methoxybenzyl)-N-{[1-(1,3-thiazol-2-yl)-1H-pyrrol-2-yl]methyl}ethanamine] | 0.48 | – |
| > 110 | Cc1c(C(C)N(Cc2ccc(Cl)cc2-c2ccnc(C(F)(F)F)n2)Cc2cccn2-c2nccs2)cnn1-c1cccc(F)c1 (stereo not shown) [Example 5, N-{4-chloro-2-[2-(trifluoromethyl)pyrimidin-4-yl]benzyl}-1-[1-(3-fluorophenyl)-5-methyl-1H-pyrazol-4-yl]-N-{[1-(1,3-thiazol-2-yl)-1H-pyrrol-2-yl]methyl}ethanamine] | 0.11 | – |
| > 570 | Cc1cccc(C)c1-n1ccc(CN(Cc2cccn2-c2nccs2)C(C)c2cnn(-c3cccc(F)c3)c2C)c1 (stereo not shown) [Example 6, N-{[1-(2,6-dimethylphenyl)-1H-pyrrol-3-yl]methyl}-1-[1-(3-fluorophenyl)-5-methyl-1H-pyrazol-4-yl]-N-{[1-(1,3-thiazol-2-yl)-1H-pyrrol-2-yl]methyl}ethanamine] | 0.57 | – |
| 320 | Cc1c(C(C)N(Cc2ncc(-c3ccccc3)n2C)Cc2ncc(-c3ccccc3)n2C)cnn1-c1cccc(F)c1 (stereo not shown) [Example 7, 1-[1-(3-fluorophenyl)-5-methyl-1H-pyrazol-4-yl]-N,N-bis[(1-methyl-5-phenyl-1H-imidazol-2-yl)methyl]ethanamine] | 5.2 | – |
| 14000 | C[C@H](c1ccc(F)cc1)N(Cc1cccn1-c1nncs1)Cc1cccn1-c1nncs1 [Example 13, (1R)-1-(4-fluorophenyl)-N,N-bis{[1-(1,3,4-thiadiazol-2-yl)-1H-pyrrol-2-yl]methyl}ethanamine] | 93 | – |
| 2800 | C[C@H](c1ccccc1Cl)N(Cc1cccn1-c1nncs1)Cc1cccn1-c1nncs1 [Example 19, (1R)-1-(2-chlorophenyl)-N,N-bis{[1-(1,3,4-thiadiazol-2-yl)-1H-pyrrol-2-yl]methyl}ethanamine] | >32 | – |
| 360 | C[C@@H](c1ccccc1Cl)N(Cc1cccn1-c1nncs1)Cc1cccn1-c1nncs1 [Example 20, (1S)-1-(2-chlorophenyl)-N,N-bis{[1-(1,3,4-thiadiazol-2-yl)-1H-pyrrol-2-yl]methyl}ethanamine] | >32 | – |
